Usually Papp stands for a coefficient for how fast a substance crosses the barrier.

Bounds are passed on as bounds.

For data set [1] the following is noted: human, four-donor-derived monolayer models (Supplementary Fig. 8a).
Data set [2] has as its system UDP-glucuronosyltransferase (UGT). In words: Raloxifene permeability and metabolizing assay. Particulars: 5 μM raloxifene. The format is in vitro ADME, human.
Data set [3] has as its system human duodenal organoid-derived monolayer model. As to the kind of experiment: FaSSIF tolerability assay with lucifer yellow. The format is in vitro ADME. Particulars: FaSSIF pH 6.5 apical, 2 h; within individual experiments and inter-experiments.
The target in data set [4] is P-gp (Homo sapiens, UniProt P08183). As to the kind of experiment: Efflux drug transporter assay with digoxin. The conditions noted are these: 10 μM digoxin, 10 μM inhibitor.
In data set [5] the target is T1, Carboxylesterase 2 (CES2) (Homo sapiens, UniProt O00748).
T1 sequence (O00748 27-559): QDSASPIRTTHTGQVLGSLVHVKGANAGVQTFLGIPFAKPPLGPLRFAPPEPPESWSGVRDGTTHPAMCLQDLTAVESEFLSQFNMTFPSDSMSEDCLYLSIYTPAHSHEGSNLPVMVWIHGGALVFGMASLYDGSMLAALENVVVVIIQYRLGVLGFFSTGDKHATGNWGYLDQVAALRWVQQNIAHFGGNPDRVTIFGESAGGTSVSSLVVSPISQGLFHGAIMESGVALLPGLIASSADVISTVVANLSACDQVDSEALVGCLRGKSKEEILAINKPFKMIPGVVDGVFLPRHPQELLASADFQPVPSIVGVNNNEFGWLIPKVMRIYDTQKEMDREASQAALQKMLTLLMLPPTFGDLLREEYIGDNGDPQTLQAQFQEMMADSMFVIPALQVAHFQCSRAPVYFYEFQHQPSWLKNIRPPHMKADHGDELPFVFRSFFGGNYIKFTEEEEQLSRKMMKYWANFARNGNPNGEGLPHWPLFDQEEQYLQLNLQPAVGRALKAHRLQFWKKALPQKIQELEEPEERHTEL
In words: Irinotecan metabolizing assay. Format: in vitro ADME. The conditions noted are these: 10 μM irinotecan, 20 μM loperamide, 3 h.

Data set [6] deals with human duodenal organoid-derived monolayer model.

Chain of P-gp (P08183 whole entry): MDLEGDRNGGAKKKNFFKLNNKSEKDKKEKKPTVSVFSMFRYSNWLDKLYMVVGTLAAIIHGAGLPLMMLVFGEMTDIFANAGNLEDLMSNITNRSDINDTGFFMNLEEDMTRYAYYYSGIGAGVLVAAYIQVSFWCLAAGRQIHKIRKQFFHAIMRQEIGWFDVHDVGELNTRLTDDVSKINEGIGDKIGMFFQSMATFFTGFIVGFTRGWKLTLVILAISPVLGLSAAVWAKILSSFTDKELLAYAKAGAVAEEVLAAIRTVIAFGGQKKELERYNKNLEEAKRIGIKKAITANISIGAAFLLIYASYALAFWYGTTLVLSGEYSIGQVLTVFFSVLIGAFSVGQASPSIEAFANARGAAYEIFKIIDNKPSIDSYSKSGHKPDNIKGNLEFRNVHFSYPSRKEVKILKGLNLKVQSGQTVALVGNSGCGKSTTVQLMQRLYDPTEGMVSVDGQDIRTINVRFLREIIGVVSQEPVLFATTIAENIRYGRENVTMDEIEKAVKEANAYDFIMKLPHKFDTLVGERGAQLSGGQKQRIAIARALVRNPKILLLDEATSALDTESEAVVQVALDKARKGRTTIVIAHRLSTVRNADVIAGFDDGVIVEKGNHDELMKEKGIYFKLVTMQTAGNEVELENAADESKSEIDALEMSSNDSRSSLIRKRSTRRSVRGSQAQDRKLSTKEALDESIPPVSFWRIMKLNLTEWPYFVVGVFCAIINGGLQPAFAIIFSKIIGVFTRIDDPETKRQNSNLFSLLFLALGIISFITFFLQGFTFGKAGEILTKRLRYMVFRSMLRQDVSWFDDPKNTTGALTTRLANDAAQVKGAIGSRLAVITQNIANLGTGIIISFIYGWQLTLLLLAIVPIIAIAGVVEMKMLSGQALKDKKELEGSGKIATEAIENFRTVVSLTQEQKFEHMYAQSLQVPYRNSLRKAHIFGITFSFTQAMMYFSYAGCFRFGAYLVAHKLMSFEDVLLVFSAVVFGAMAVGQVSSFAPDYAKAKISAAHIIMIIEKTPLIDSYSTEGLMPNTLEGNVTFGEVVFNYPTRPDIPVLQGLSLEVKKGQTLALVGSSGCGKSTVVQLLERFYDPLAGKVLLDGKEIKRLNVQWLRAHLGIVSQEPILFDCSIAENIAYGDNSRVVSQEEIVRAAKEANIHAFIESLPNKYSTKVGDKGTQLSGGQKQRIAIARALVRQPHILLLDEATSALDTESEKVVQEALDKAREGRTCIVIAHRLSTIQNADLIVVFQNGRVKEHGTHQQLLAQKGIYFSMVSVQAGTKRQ

For `Cc1cc(=O)n(-c2ccccc2)n1C` [Antipyrine], in data set [1], the Papp at 10 μM is more than 1 ×10⁻⁶ cm/s.
On the same count and under the same terms, with `CC(C)NCC(O)COc1cccc2ccccc12` (stereo not drawn) [Propranolol] the figure was more than 1 ×10⁻⁶ cm/s; with `Cc1onc(-c2ccccc2)c1C(=O)N[C@@H]1C(=O)N2[C@@H]1SC(C)(C)[C@@H]2C(=O)O` [Oxacillin], less than 1 ×10⁻⁶ cm/s.
Consider `O=C(c1ccc(OCCN2CCCCC2)cc1)c1c(-c2ccc(O)cc2)sc2cc(O)ccc12` [Raloxifene], for which, in data set [2], the “Metabolism by UGT” value was “mostly found to be metabolized to glucuronide”.
The compound `CN(CCOc1ccc(CC2SC(=O)NC2=O)cc1)c1ccccn1` (stereo not drawn) [Rosiglitazone] had a Papp at 10 μM in data set [1] of more than 1 ×10⁻⁶ cm/s.
On the same count and under the same terms, then `CCC1=C(C)CN(C(=O)NCCc2ccc(S(=O)(=O)NC(=O)N[C@H]3CC[C@H](C)CC3)cc2)C1=O` [Glimepiride], with more than 1 ×10⁻⁶ cm/s; and `CC(C(=O)O)c1cccc(C(=O)c2ccccc2)c1` (stereo not drawn) [Ketoprofen], with more than 1 ×10⁻⁶ cm/s; and `O=C(O)C[C@H](O)C[C@H](O)/C=C/c1c(C2CC2)nc2ccccc2c1-c1ccc(F)cc1` [Pitavastatin], with more than 1 ×10⁻⁶ cm/s.
For the compound lucifer yellow, in data set [3], the “Papp of lucifer yellow” value is recorded as “below 1.0 × 10^–6 cm/s”.
`O[C@@H](COc1cccc2ncccc12)CN1CCN([C@@H]2c3ccccc3[C@@H]3[C@H](c4ccccc42)C3(F)F)CC1` [zosquidar, zosuquidar]: the “Effect on transport of P-gp substrate digoxin” value in data set [4] is recorded as “canceled”.
Consider `CN(C)C(=O)C(CCN1CCC(O)(c2ccc(Cl)cc2)CC1)(c1ccccc1)c1ccccc1` [loperamide], for which the “Effect on generation of SN-38 from irinotecan” value in data set [5] is reported as “significantly inhibited”.
Regarding `Nn1nnc2ccccc21` [ABT, 1-aminobenzotriazole], in data set [6], the “Effect on amount of midazolam metabolites” value is reported as “significantly decreased” and the “Effect on midazolam permeability” value is listed as “significantly enhanced”.
On to `NC(=O)N1c2ccccc2C=Cc2ccccc21` [Carbamazepine], for which, in data set [1], the Papp at 10 μM is more than 1 ×10⁻⁶ cm/s.
Still for that read-out and setting: then `COCCc1ccc(OCC(O)CNC(C)C)cc1` (stereo not drawn) [Metoprolol], with more than 1 ×10⁻⁶ cm/s.

Values taken from paper PMC11968819 (Scientific Reports, 2025).
